The record followed here is patent US6562866B1 (priority 1998, dated 2003).

The structures appear in SMILES notation.

In one series the test system is ACAT. Nature of the series: ACAT assay on liver microsomes of the fed rats. The class given is biochemical. Particulars: liver microsomes of rats fed 0.1% test substance in 1% cholesterol diet, versus control group. How it is done: 1 g each of the livers taken from each group of rats of Example 2 was homogenized in 5 ml of homogenization medium (0.1 M KH2PO4, pH 7.4, 0.1 mM EDTA and 10 mM β-mercaptoethanol). The homogenate was centrifuged at 3,000×g for 15 min. at 4° C. and the supernatant thus obtained was centrifuged at 15,000×g for 15 min. at 4° C. to obtain a supernatant. The supernatant was put into an ultracentrifuge tube (Beckman) and centrifuged at 100,000×g for 1 hour at 4° C. to obtain microsomal pellets, which were then suspended in 3 ml of the homogenization medium and centrifuged at 100,000×g for 1 hour at 4° C. The pellets thus obtained were suspended in 1 ml of the homogenization medium. The protein concentration of the resulting suspension was determined by Lowry's method and then adjusted to 4 to 8 mg/ml. The resulting suspension was stored in a deep freezer (Biofreezer, Forma Scientific Inc.). […]
200 μl of the resulting supernatant was put in a scintillation bottle and 4 ml of scintillation fluid (Lumac) was added thereto. The mixture was assayed for radioactivity with 1450 Microbeta liquid scintillation counter (Wallacoy, Finland). ACAT activity was calculated as picomoles of cholesteryl oleate synthesized per min. per mg protein (pmoles/min/mg protein).
On the technique in general: Liver microsomes are vesicles of endoplasmic reticulum, rich in cytochrome P450 enzymes.

Series [1] is described as follows: Chemical analysis of blood of rabbits fed 1% cholesterol diets. The series is classed as in vivo, New Zealand White rabbits. The following applies: 6 weeks; for lowering of total plasma cholesterol level as compared to the comparative group: 0.1% in 1% cholesterol diet. The protocol: 24 three-month-old New Zealand White rabbits (Yeonam Horticulture and Animal Husbandry College, Korea), each weighing about 2.5 to 2.6 kg, were raised under a condition of temperature 20±2° C., relative humidity 55±5%, and photoperiod 12L/12D. […] RC4 diet comprises 7.6% moisture, 22.8% crude protein, 2.8% crude fat, 8.8% crude ash, 14.4% crude cellulose and 43.6% soluble nitrogen-free substances. Rutin and quercetin were purchased from Sigma Co. (St. Louis, Mo.).
The rabbits were fed for 6 weeks while being allowed free access to the diets and water.
After six weeks, the rabbits were anesthetized with an intramuscular injection of ketamine (50 mg/kg) in the femoral region and sacrificed. A blood sample was taken from the heart of each rabbit, allowed to stand for 2 hours and centrifuged at 3,000 rpm for 15 minutes and the supernatant serum was separated and stored in a freezer before use.
The chemical analysis of blood was carried out by employing a blood chemical analyzer (CIBA Corning 550 Express, USA) to determine the changes in GOT, GPT, γ-GTP, total cholesterol and triglyceride levels.

Series [2] can be described thus: Plasma total cholesterol, HDL-cholesterol and neutral lipid in rats fed high-cholesterol diets. The class given is in vivo, Sprague-Dawley rats. Particulars: six weeks. The protocol: 30 three-week-old white Sprague-Dawley rats (Taihan laboratory animal center, Korea), each weighing about 90 to 110 g, were evenly divided into three dietary groups by a randomized block design.
The rats were allowed to feed freely on the specified diet together with water for six weeks, the ingestion amount was recorded daily and the,rats were weighed every 7 days, and then the record was analyzed.
The rats of the dietary groups obtained in Step 1 were sacrificed and blood samples were taken therefrom. The blood was allowed to stand for 2 hours and centrifuged at 3,000 rpm for 15 minutes and the supernatant was separated and stored in a deep freezer before use. The chemical analysis of blood was carried out by employing a blood chemical analyzer (CIBA Corning 550 Express, USA) to determine the changes in total cholesterol, HDL-cholesterol and triglyceride levels.

Series [3] in a line: Administration of rutin capsules to humans, plasma lipid metabolism. The series is classed as in vivo, human. Particulars: two men, daily oral dose of lomg/kg as capsule, 60 days, before vs after. How it is done:
The plasma cholesterol and neutral lipid (triglyceride) contents were determined before and after the administration.

In the next series the test system is ICR mice. Put plainly: Toxicity of orally administered rutin (single oral dose, 10 day observation). How it is done:
12 seven-week-old, specific pathogen-free ICR […] mice, six female mice each weighing about 25 to 29 g and six male mice each weighing about 34 to 38 g, were kept under an environment of 22±1° C., 55±5% relative humidity and 12L/12D photoperiod. Fodder (Cheiljedang Co., mouse and rat fodder) and water were sterilized and fed to the mice.
Further, on the 10th day, the mice were sacrificed and the internal organs were visually examined.

[4] abbreviates: 1% cholesterol diet plus 0.1% rutin or quercetin or 1 mg/kg Lovastatin.
The mark [5] stands for this setting: 1% cholesterol diet plus 0.1% test substance.

As to `O=c1c(O)c(-c2ccc(O)c(O)c2)oc2cc(O)cc(O)c12` [Quercetin, quercetin], the “% Inhibition on ACAT activity” value with ACAT is recorded as 20%. The “lowering of total plasma cholesterol level as compared to the comparative group” value in series [1] worked out at 30%. In series [1] (setting [4]), the “TG (triglyceride)” value worked out at 30.0 mg/dL and the “Total-C (total cholesterol)” value is 820.0 mg/dL. In series [2] (0.1% in 1% cholesterol diet), the “increase of HDL-C/Total-C ratio compared with control group” value turned out to be 54%, the “reduction of neutral lipid content compared with control group” value worked out at 17% and the “reduction of total plasma cholesterol level compared with control group” value is listed as 30%. Further, in series [2] (setting [5]), the “HDL-C (HDL-cholesterol)” value worked out at 41 ± 3 mg/dL; the “HDL-C/Total-C ratio (row head is a formula, MATH:00001)” value came to 43; the “TG (triglyceride)” value stood at 81 ± 4 mg/dL; the “Total-C (total cholesterol)” value is 95 ± 5 mg/dL.

Regarding `C[C@@H]1O[C@@H](OC[C@H]2O[C@@H](Oc3c(-c4ccc(O)c(O)c4)oc4cc(O)cc(O)c4c3=O)[C@H](O)[C@@H](O)[C@@H]2O)[C@H](O)[C@H](O)[C@H]1O` [Rutin], in series [1], the “lowering of total plasma cholesterol level as compared to the comparative group” value amounted to 30%. In series [1] (setting [4]), the GOT was determined as 87.0 IU/l, the GPT is 33.9 IU/l, the “TG (triglyceride)” value worked out at 35.3 mg/dL and the “Total-C (total cholesterol)” value is 798.2 mg/dL. Further, the γ-GTP in series [1] (setting [4]) was 1.92 IU/l. Further, in series [2] (0.1% in 1% cholesterol diet), the “reduction of neutral lipid content compared with control group” value came out at 20% and the “reduction of total plasma cholesterol level compared with control group” value turned out to be 21%. Moreover, in series [2] (setting [5]), the “HDL-C (HDL-cholesterol)” value turned out to be 36 ± 2 mg/dL and the “TG (triglyceride)” value stood at 78 ± 3 mg/dL. Moreover, in series [3], the “reduction of plasma cholesterol content” value amounted to 25% and the “reduction of plasma neutral lipid (triglyceride) content” value was 20%. In the series with ICR mice (mice, single oral dose of 1,000 mg/kg), the “survival at day 10” value is “All the mice were alive”. For the same compound, in the series on ICR mice (mice, single oral dose of 1,000 mg/kg, day 10), the “pathological abnormality at autopsy” value is “did not develop any pathological abnormality”. In addition, the toxicity result in the series on ICR mice (mouse, in vivo, po, 160 mg/kg) was “no toxicity”.
